In patent US20060263895A1, “Method for monitoring the stereoselectivity and relative rate of organic chemical reactions” (priority 2005, published 2006):

Tests used:
[1] = target: T1, alcohol dehydrogenase from horse liver (HLADH) (Equus caballus, UniProt P00327); experiment: HLADH relative velocity (enantioselectivity) and Michaelis-Menten kinetics with 1,2-propanediol; assay type: biochemical; details: for Km / Vmax: HLADH; for Km: 7.2 mM NAD+, pH 8.8, 25° C.; for Vmax: 0.049 U
T1 construct: purchased; host or cells: equine liver
Experimental: 1. HLADH: The enantioselectivity of […] was estimated from the ratios of the initial velocities of (R)— vs. (S)-1,2-propanediol at fixed concentrations between 4.0 and 100 mM at 25° C. Each velocity measurement was made in duplicate. The assay cuvette contained the following: 7.2 mM NAD+ (33 μL from a 220 mM stock), 0.049 U of HLADH, and various concentrations of either the (R)— or (S)-enantiomer of 1,2-propanediol. In all cases, the final volume was adjusted to 1 mL using 50 mM sodium pyrophosphate buffer, pH 8.8.
(§1) Indeed, this was confirmed by the determination of Km's for each antipode of 1,2-propanediol for each enzyme. For each antipodal diol, the same data as were used to survey dehydrogenase enantioselectivity, as a function of diol concentration, were plotted in Michaelis-Menten fashion, as v0 vs. [S] (FIGS. 3 and 4). For each dehydrogenase, the data curve for (R)-1,2-propanediol is shown by -▪-, and those for the (S)-enantiomer by -●-. In all four cases, the data were processed by […], least squares fitting to a hyperbolic function. The resulting curve fits and best fit hyperbolic equations are presented above.

[2] = target: T2, alcohol dehydrogenase from Thermoanaerobium brockii (TBADH) (Thermoanaerobacter brockii, UniProt P14941); experiment: TBADH relative velocity (enantioselectivity) and Michaelis-Menten kinetics with 1,2-propanediol; assay type: biochemical; details: for Km / Vmax: TBADH; for Km: 2.2 mM NADP+, pH 8.8, 25° C.; for Vmax: 0.113 U
T2 construct: purchased
T2 sequence (P14941 1-352): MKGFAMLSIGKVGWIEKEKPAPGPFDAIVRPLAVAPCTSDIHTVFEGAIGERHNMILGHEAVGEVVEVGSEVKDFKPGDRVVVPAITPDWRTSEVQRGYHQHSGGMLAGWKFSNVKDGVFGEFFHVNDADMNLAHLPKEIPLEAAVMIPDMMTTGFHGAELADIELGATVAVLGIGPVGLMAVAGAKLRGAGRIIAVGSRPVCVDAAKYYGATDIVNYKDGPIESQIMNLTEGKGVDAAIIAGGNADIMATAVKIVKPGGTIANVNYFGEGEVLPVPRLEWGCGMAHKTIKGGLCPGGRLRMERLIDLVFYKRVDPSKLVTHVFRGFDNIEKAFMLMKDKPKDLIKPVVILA
Experimental: 2. TBADH: The enantioselectivity of […] was estimated from the ratios of the initial velocities of (R)— vs. (S)-1,2-propanediol at fixed concentrations between 3.0 and 80 mM at 25° C. Each velocity measurement was performed in triplicate. The assay cuvette contained the following: 2.2 mM NADP+ (10 μL from a 220 mM stock), 0.113 U of TBADH, and various concentrations of either (R) or (S)-enantiomer of 1,2-propanediol. In all cases, the final volume was adjusted to 1 mL using 50 mM sodium pyrophosphate buffer, pH 8.8.
as §1

[3] = HKR of (±)-propylene oxide under standard neat 'Jacobsen conditions' (NMR conversion, chiral HPLC ee); details: for NMR conv. (time): 3 h; for NMR conv. (time) / % ee (HPLC): loading 0.25 mol %; for % ee of the 1,2-propanediol product, as observed by chiral HPLC (lower number): neat propylene oxide, 0.55 equiv. H2O, 0.25 mol % catalyst, 3 h reaction time
Experimental: Salens in the fully synthetic, 42 member focused library that led to catalysts with appreciable activity, as indicated by double cuvette-ISES, were also evaluated ‘outside of the cuvette,’ under conditions more typically employed in HKR reactions. Specifically, these Co(III)-salen catalysts were evaluated in the HKR of (±)-propylene oxide, under neat conditions, similar to those described by Jacobsen and coworkers. Reactions were arbitrarily stopped after 3 hours, to obtain the enantiopurity of the 1,2-propanediol product at relatively early reaction times, for comparison with ISES predictions.
A typical procedure follows: To the Co(III)-salen catalyst derived from 7e (5.4 mg, 5.4 μmol, 0.25 mol %) and (±)-propylene oxide (125 mg, 2.15 mmol) at 0° C., was added water (21 μL, 1.18 mmol, 0.55 equiv.). The reaction mixture was securely capped, and allowed to warm to room temperature and stirred, most commonly for a total of 3 hours. Percent conversion at 3 hours was evaluated by 1H NMR of an aliquot (cooled to 0° C. for the transfer), in CDCl3. In most of these cases, the conversion was low enough after 3 hours, that the unreacted epoxide (bp 32° C.) was of relatively low ee, and was therefore removed by evaporation under aspirator vacuum. When the conversion was less than 5% by NMR after 3 hours, reactions were continued for longer times.
Upon termination of the reaction, the diol product was isolated by Kugelrohr distillation (˜120° C.-oven temp; 0.1 torr). To determine ee, the isolated diol was derivatized using p-bromobenzoyl imidazole (2.2 equiv.) in THF in the presence of NaH (4 equiv.) at room temperature for 5 min. The bis(p-bromobenzoate) esters obtained following sequential washes with 1 N HCl and saturated sodium bicarbonate, were of sufficient purity to be used directly for chiral HPLC analysis (Chiralcel OD, 99% […]). [drawing 23] [drawing 24] [drawing 25] [drawing 26] [drawing 27]

[4] = [total 1,2-propanediol] in aqueous ISES layer by 1H NMR; details: for [diol] (mM) @ 15 min: aqueous ISES layer, 1H NMR, t = 15 min; for Norm.: normalized to the catalyst derived from salen 3b (rate 1.0)
Experimental: The concentration of 1,2-propanediol in the aqueous layer was estimated under typical ISES conditions using 1H NMR spectroscopy. The bilayer was prepared as usual for double cuvette-ISES (Section V), but for the substitution of D2O for H2O in the buffer, and the elimination of the dehydrogenase enzymes. After 15 min, the aqueous layer (300 μL of 500 μL total) was withdrawn and mixed with a fresh solution of imidazole of known concentration (also 300 μL in D2O), as an internal concentration standard. Accumulation of the 1H NMR spectrum, followed by integration and quantitation, provided an experimental measure of [total diol] in the aqueous reporting layer at t=15 minutes for the catalyst under investigation. The observed diol concentrations for ten catalysts examined in this way are collected in Table S6, below. These have been normalized to the value for the catalyst derived from salen 3b (arbitrarily assigned a rate of 1.0).

[5] = Double cuvette-ISES (in situ enzymatic screening) of Co(III)-salen mediated HKR of (±)-propylene oxide; details: bilayer of pH 8.6 buffer over 7.2 M epoxide in CHCl3, 0.25 mol % catalyst, 15-35 min; + = (S), − = (R)
Experimental: Aqueous reporting layers. containing TBADH/NADP+ (cuvette 1) and HLADH/NAD+ (cuvette 2), respectively, are then added. The increase in absorbance at 340 nm can be followed for several such sets in parallel by UV-vis spectrophotometry. The kinetic data are then used to make the double-cuvette ISES predictions.
A general procedure for double cuvette-ISES to estimate both enantioselectivities and relative rates for an array of catalysts being screened in parallel is presented below. The hydrolytic kinetic resolution (HKR) of (±) propylene oxide was chosen as model reaction.
Typically, quartz cuvettes with one cm light paths and with nominal one mL volumes were used. For each catalyst, a two cuvette screen was performed, with cuvette A containing HLADH, as (S)-propanediol-selective reporting enzyme, and cuvette B containing TBADH, as a (R)-propanediol-selective reporting enzyme. For each cuvette, the final volume was 800 μL (300 μL of organic layer; 500 μL of aqueous layer).
Both cuvettes A and B had the following composition: 150 μL (2.15 mmol) of (±)-propylene oxide (7.2 M in organic layer), 150 μL of CHCl3 and 0.25 mol % Co(III)-salen catalyst. The total organic layer volume was maintained as 300 μL in all catalyst screens.
(i) Cuvette A: 0.35 U HLADH (17.6 μL from a stock solution (0.02U/μL)), 7.2 mM β-NAD+(16.5 μL from a 220 mM stock) and 465.8 μL of 50 mM sodium pyrophosphate buffer, pH 8.8. The final pH was 8.6.
(ii) Cuvette B: 0.35 U TBADH (15.8 μL from a stock solution (0.022U/μL)) of, 2.2 mM β-NADP+ (5 μL from a 220 mM stock) and 479.5 μL of 50 mM sodium pyrophosphate buffer, pH 8.8. The final pH was 8.6. The total volume of the aqueous layer was maintained as 500 μL in both cuvettes in all ISES experiments.
C. Step by Step Protocol: A catalyst stock solution (22 μmol of catalyst in 620 μL CHCl3) was made up in a 1.5 ml microcentrifuge tube, and stored on ice, along with a stock of (±)-propylene oxide, in a separate tube. The organic layers were prepared by briefly vortexing 150 μL (5.4 μmol, 0.25 mol %) of the catalyst stock in CHCl3 with 150 μL (2.15 mmol) of (±)-propylene oxide in iced microcentrifuge tubes. These were loaded into 1 mL quartz cuvettes using precooled (refrigerator), disposable 1 mL syringes. The aqueous layers were then layered on top of the organic layers, by syringe, down the walls of the cuvette.

[6] = reaction stopped at the time given (mostly 3 h), + = (S), − = (R)

T1 sequence (P00327 whole entry): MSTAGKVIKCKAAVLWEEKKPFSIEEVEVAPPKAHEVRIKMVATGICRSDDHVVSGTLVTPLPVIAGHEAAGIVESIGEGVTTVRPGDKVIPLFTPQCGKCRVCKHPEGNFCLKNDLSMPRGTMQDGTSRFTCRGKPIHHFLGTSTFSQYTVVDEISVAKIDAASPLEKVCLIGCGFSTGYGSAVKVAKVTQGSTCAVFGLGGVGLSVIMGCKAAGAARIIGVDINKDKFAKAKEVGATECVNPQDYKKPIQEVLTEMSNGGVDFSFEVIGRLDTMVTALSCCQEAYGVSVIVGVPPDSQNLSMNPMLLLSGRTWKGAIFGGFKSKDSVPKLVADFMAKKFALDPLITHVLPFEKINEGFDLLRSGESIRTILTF

C[C@@H](O)CO [(R)-1,2-propanediol]
Km [1]: 25 ± 2 mM | Vmax [1]: 355±9 mAbs min−1 | enantiomeric preference of TBADH [2]: significant preference | Km [2]: 17 ± 2 mM | Vmax [2]: 487±18 mAbs min−1

CC(O)CO (stereo not drawn) [1,2-Propanediol]
vS/vR of HLADH ([1]; 1,2-propanediol conc. 4 mM, 25° C.): 4.0 | vS/vR of HLADH ([1]; 1,2-propanediol conc. 8 mM): 3.6 | vS/vR of HLADH ([1]; 1,2-propanediol conc. 12 mM): 2.8 | vS/vR of HLADH ([1]; 1,2-propanediol conc. 16 mM): 2.4 | vS/vR of HLADH ([1]; 1,2-propanediol conc. 20 mM): 2.7 | vS/vR of HLADH ([1]; 1,2-propanediol conc. 30 mM): 2.8 | vS/vR of HLADH ([1]; 1,2-propanediol conc. 40 mM): 3.0 | vS/vR of HLADH ([1]; 1,2-propanediol conc. 50 mM): 2.7 | vS/vR of HLADH ([1]; 1,2-propanediol conc. 100 mM): 2.6 | vR/vS of TBADH ([2]; 1,2-propanediol conc. 3 mM, 25° C.): 10.8 | vR/vS of TBADH ([2]; 1,2-propanediol conc. 6 mM): 8.9 | vR/vS of TBADH ([2]; 1,2-propanediol conc. 10 mM): 9.9 | vR/vS of TBADH ([2]; 1,2-propanediol conc. 20 mM): 10.6 | vR/vS of TBADH ([2]; 1,2-propanediol conc. 30 mM): 9.1 | vR/vS of TBADH ([2]; 1,2-propanediol conc. 40 mM): 8.4 | vR/vS of TBADH ([2]; 1,2-propanediol conc. 50 mM): 9.0 | vR/vS of TBADH ([2]; 1,2-propanediol conc. 60 mM): 9.1 | vR/vS of TBADH ([2]; 1,2-propanediol conc. 80 mM): 8.6

C[C@H](O)CO [(S)-1,2-propanediol]
Km [1]: 16 ± 1 mM | Vmax [1]: 819±20 mAbs min−1 | Km [2]: 23 ± 4 mM | Vmax [2]: 60±4 mAbs min−1

CC(C)(C)c1cccc(C=NC[C@@H](N=Cc2cccc(C(C)(C)C)c2O)c2ccccc2)c1O [Salen 2b, N,N′-Bis(3′-tert-butylsalicylidene)-(1S)-phenyl-1,2-ethylenediamine]
NMR conv. (time) [3]: 26 (3 h) % | % ee (HPLC) [3, 6]: −75 (R) % ee | % ee of the 1,2-propanediol product, as observed by chiral HPLC (lower number) ([3]; + = (S), − = (R)): −75 % ee | [diol] (mM) @ 15 min [4]: 22 mM | Norm. [4]: 0.23 | % ee of the 1,2-propanediol product, as predicted by double-cuvette ISES (upper number) [5]: −73 % ee

Oc1c(C=NC[C@H](Cc2ccc3ccccc3c2)N=Cc2ccc3ccccc3c2O)ccc2ccccc12 [Salen 5d, N,N′-Bis(1′-hydroxy-2′-naphthylidene)-(1S)-(β-naphthylmethyl)-1,2-ethylenediamine]
NMR conv. (time) [3]: 10 (3 h) % | % ee (HPLC) [3, 6]: +11 (S) % ee | % ee of the 1,2-propanediol product, as observed by chiral HPLC (lower number) ([3]; + = (S), − = (R)): +11 % ee | [diol] (mM) @ 15 min [4]: 54 mM | Norm. [4]: 0.56 | % ee of the 1,2-propanediol product, as predicted by double-cuvette ISES (upper number) [5]: +9 % ee

N,N′-Bis(1′-hydroxy-2′-naphthylidene)-[1R-(1α,2α,5α)]-2-amino-7,7-dimethyl-2-bicyclo[3.3.1]heptane-ethanamine [Salen 1d]
% ee (HPLC) ([3]; @1 h): +81@1 h, % ee | % ee (HPLC) ([3]; @3 h): +67@3 h (S) % ee | % ee of the 1,2-propanediol product, as observed by chiral HPLC (lower number) ([3]; + = (S), − = (R)): +81 % ee | [diol] (mM) @ 15 min [4]: 91 mM | Norm. [4]: 0.95 | % ee of the 1,2-propanediol product, as predicted by double-cuvette ISES (upper number) [5]: +75 % ee

CC(C)(C)c1cc(C=NC[C@@H](N=Cc2cc(C(C)(C)C)cc(C(C)(C)C)c2O)c2ccccc2)c(O)c(C(C)(C)C)c1 [Salen 2a, N,N′-Bis(3′,5′-di-tert-butylsalicylidene)-(1S)-phenyl-1,2-ethylenediamine]
NMR conv. (time) [3]: 17 (3 h) % | % ee (HPLC) [3, 6]: −93 (R) % ee | % ee of the 1,2-propanediol product, as observed by chiral HPLC (lower number) ([3]; + = (S), − = (R)): −93 % ee | [diol] (mM) @ 15 min [4]: 27.5 mM | Norm. [4]: 0.29 | % ee of the 1,2-propanediol product, as predicted by double-cuvette ISES (upper number) [5]: −97 % ee
